Assay results from patent US10350308B2, “Molecular probes for imaging myelin” (priority 2010, dated 2019).
Entries after “also recorded” stand apart in the source; their conditions may differ.

Tests used:
myelin [1] = assay: In vivo microPET-MR imaging in focal demyelination rat model
Description: Focal demyelination of adult rat brain. Sprague Dawley female rats (Harlan Laboratory, Indianapolis, Ind.), 12 weeks of age, were used for this study. Animal surgery and care was performed in accordance with the Institutional Animal Care and Use Committee of Case Western Reserve University Animals were anesthetized using a mixture of ketamine hydrochloride (64.2 mg/kg), xylazine hydrochloride (12.9 mg/kg), and acepromazine (12.9 mg/kg) and positioned in a stereotaxic frame (Stoelting). A small incision was made in the scalp, and the corpus callosum was targeted using the following stereotaxic coordinates, relative to bregma: anterior-posterior, 0.0 mm; medial-lateral, 2.0; and dorsal-ventral, 3.4. A small hole was drilled in the skull, and a 26 S gauge needle attached to a 10 μl Hamilton Syringe was lowered into the corpus callosum according to the dorsal-ventral coordinate. A microinjector pump (Stoelting) controlled the infusion of 6 μl of lysolethicin (lysophosphatidyl chorine) or saline at a rate of 0.25 μl/min, after which the needle was left in place for 2 min to prevent liquid reflux out of the brain parenchyma. The incision was then closed using 5-0 Ethicon sutures, and the animals were allowed to recover on a heating pad. The imaging of demyelination of the rats and vehicles were performed 5 d after surgery. The rats were kept alive.
Animals were placed in a Concord R4 microPET scanner (Knoxyille, Tenn.) under anesthesia. After a 10 min transmission scan with a Co-57 source, 7.4 MBq of [11C]DAS were administered to each animal through a tail vein injection, which was immediately followed by dynamic acquisition for up to 90 min. A 2-D filtered back projection (FBP) algorithm was used for image reconstruction with a 256×256 pixel resolution per transverse slice. A total of 63 transverse slices were reconstructed with the field of view covering the head of the animals. Decay correction, attenuation correction and scatter correction were all performed during the image histogram and reconstruction processes.
All MR imaging experiments were performed on a Bruker Biospec 7.0T/30 cm MRI and Spectroscopy scanner (Bruker Biospin, Billerica, Mass.). The animal's head was positioned in a 72-mm volume ID cylindrical transceiver coil. […]
Coregistration of MRI and PET images, PET and CT images were conducted by using the MATLAB-based program COMKAT (Compartmental Model Kinetic Analysis Tool). […] After creating uniform images from the PET and MRI images, VOI (Volume of interest) and ROI (Region of interest) were defined and used to measure the radioactivity concentration in the corpus callosums of both hypomyelinated and wild type mice. […]
The radioactivity was decay-corrected and normalized by the body weight of the mice and the amount of [^11C] […]

myelin sheaths = assay: In vitro fluorescent tissue staining of mouse brain sections; type: binding; conditions: compared with MBP antibody
MBP = assay: CNP staining followed by MBP antibody staining in the same brain tissue sections; type: binding, mouse; conditions: cerebellum, frontal cortex, caudate putamen; CNP 1 mM
Description: After incubation with 3% normal goat serum in 1×PBS for 60 min, the fresh frozen sections were immunostained overnight at 4° C. with purified SMI99 mouse monoclonal anti-MBP (Covance, Inc. Princeton, N.J.) 1:500 dilution in 3% normal goat serum in 1×PBS, followed by one hour incubation at room temperature with Fluorescein (FITC) AffiniPure Goat Anti-Mouse IgG (H=L) (Jackson ImmunoResearch Laboratories, Inc. West Grove, Pa.) 1:500 dilution, then rinsed in 1×PBS (2×5′). The stained sections were covered with fluorescence mounting medium (Vectashield, Vector laboratories). Images of the stained mouse brain sections were acquired on a Leica DM5000 inverted microscope (L5 filter, BP 527/30).
(§1) Fresh frozen sections with 20 μm thickness were incubated in 0.1% Triton-100 in 1×PBS for 10 min, which was followed by incubation in a solution of CNP (1 mM) in 1% DMSO/1×PBS for 30 min at room temperature. The fresh frozen sections were then washed three times for 5 min each with 1×PBS before cover-slipping with fluorescence mounting medium (Vectashield, Vector laboratories). Images of the stained mouse brain sections were acquired on a Leica DMI5000 inverted microscope (Y5 filter, BP 700/75).
To determine the exact binding sites of CNP, we compared both CNP and MBP staining conducted in the same brain tissue sections. […]

myelin [2] = assay: In vivo NIRF imaging in shiverer mouse model; parameters: species or system shiverer mice and wild-type mice; conditions: for fluorescent intensities in the brain, shiverer versus wild-type mice / time of peak fluorescent signal in shiverer mice / average radiance in wild-type mice relative to shiverer mice: 0.1 mg/kg i.v.; for time of peak fluorescent signal in shiverer mice: brain; for average radiance in wild-type mice relative to shiverer mice: at 30 minutes, after deducting vehicle signals
Description: We then evaluated the pharmacokinetic profiles of CNIR in 3-month old female shiverer mice (n=3) and age-matched wild-type mice (n=2). The in vivo NIR imaging was conducted using the same dosage as in the hypermyelinated mouse model. The fluorescent signals were recorded at 2, 4, 6, 8, 10, 15, 20, 25, 30, 40, 50, 60, 70, 80, 90, 100, 110 and 120 min after i.v. injection of CNIR and the vehicle (0.05% DMSO/PBS (V/V)).

[3] = tested on: LPC induced demyelination lesion; assay: CNP staining of rat brain sections after imaging in the focal demyelination model; type: binding; conditions: LPC-rats versus saline-rats, compared with Black-Gold II
Description: Focal demyelination of adult rat brain. Sprague Dawley female rats (Harlan Laboratory, Indianapolis, Ind.), 12 weeks of age, were used for this study. Animal surgery and care was performed in accordance with the Institutional Animal Care and Use Committee of Case Western Reserve University Animals were anesthetized using a mixture of ketamine hydrochloride (64.2 mg/kg), xylazine hydrochloride (12.9 mg/kg), and acepromazine (12.9 mg/kg) and positioned in a stereotaxic frame (Stoelting). […]
Fresh frozen section: Mice or rats were deeply anesthetized with isoflurane and perfused via the ascending aorta with PBS followed by 4% paraformaldehyde in PBS. […] Tissue from the midline of the brain containing the whole corpus callosum was selected for staining Stained sections were covered with fluorescence mounting medium (Vectashield; Vector Laboratories, Burlingame, Calif.) and stored at 4° C. for future analysis.
as §1, with “Images of the stained mouse brain sections were acquired on a Leica DMI5000 inverted microscope (Y5 filter, BP 700/75).” left out

[4] = Fluorescent excitation and emission spectra; type: physicochemical; conditions: 100 nM in DMSO
Description: The fluorescent excitation and emission spectrum is recorded using Varian fluorescent spectroscopy at the concentration of […] in DMSO.
The excitation and emission spectra of CNP were recorded using Cary Eclipse Fluorescence Spectrophotometers (Varian, Inc.; Palo Alto, Calif.) at 25° C. in DMSO, at a concentration of 100 nM. The excitation and emission slits were 5 nm, the scan rate was 600 nm/min, and the data interval was 1 nm.

[5] = Brain permeability by co-registration of fluorescent and X-ray images; type: in vivo; conditions: 0.1 mg/kg i.v., 20 minutes post injection, wild-type mice
Description: The fur of the mouse was shaved to avoid the problem of autofluorescence. 20 minutes after the i.v. injection of CNIR 0.1 mg/kg, the mouse was anesthetized utilizing isoflurane gas. The mouse was positioned on the center of the platen and imaged via fluorescence (ex 760 em 790) and X-ray. Vertical Resolution: 885 ppi, horizontal Resolution: 885 ppi. To determine the brain permeability of CNIR, we administered CNIR to wild-type mice through intravenous injection in tail vein. At 20 minutes post injection of CNIR (0.1 mg/kg), both X-ray and fluorescent images of the mouse brain were acquired using KODAK In-Vivo Multispectral System FX (FIG. 3). Co-registration of high quality X-ray image and fluorescent image confirmed that the strong fluorescence was indeed emitted from inside the brain.

myelin [6] = assay: In vivo NIRF imaging in hypermyelinated mouse model; parameters: species or system Plp-Akt-DD mice and wild-type mice; conditions: 0.1 mg/kg i.v.
Description: The in vivo Near-infrared fluorescence imaging was carried out using Xenogen IVIS Imaging System 200, (Caliper Life Science, Inc., Hopkinton, Mass.). To avoid the influence of the autofluorescence and light scattering due to the fur, all the mice were shaved before experiment. After the i.v. injection of CNIR 0.1 mg/kg, the mouse was anesthetized utilizing isoflurane gas, the mouse was positioned on the center of the stage (working temperature 20-40° C.). The Near-infrared images were acquired by Back-thinned, back-illuminated grade 1 CCD, which is thermoelectrically cooled to −90° C. ensuring low dark current and low noise. The fluorescent filter set for excitation was 705-780 nm, for emission was 810-885 nm. The experiments were controlled with Living Image 3.1 (Caliper Life Science. Inc., Hopkinton, Mass.). Lens: f/2. Field of view: 6.5 cm×6.5 cm. Imaging Pixels: 2048×2048. Exposure time: 0.5 s for all the images. The near-infrared images were evaluated by Living Image 3.1 (Caliper Life Science. Inc., Hopkinton, Mass.). All the images used photon as the unit for the quantification, and the images were shown as overlaid photograph with fluorescence. Statistical analysis was performed using two-tailed t-test with GraphPad Prism 5, (GraphPad Software, Inc., La Jolla, Calif.). CNIR (0.1 mg/kg) and vehicle (0.05% DMSO/PBS (V/V)) was first administered to the hypermyelinated mouse model through intravenous injected in the tail vein. The fluorescence signals were recorded at 2, 4, 6, 8, 10, 15, 20, 25, 30, 40, 50, 60, 70, 80, 90, 100, 110 and 120 min post injection. To exclude the influence of autofluorescence from the mouse tissues and impact from the solution, the vehicle (0.05% DMSO/PBS (V/V)) also injected and fluorescence was recorded at 2, 4, 6, 8, 10, 15, 20, 25, 30, 40, 50, 60, 70, 80, 90, 100, 110 and 120 min to compare with the CNIR solution (images not shown). […]

[7] = corpus callosum, 0-60 min microPET

SMILES	uptake in control rat brain compared with demyelinated rat brain (myelin [1]; corpus callosum ROI, 60 min microPET scan)	average SUV in demyelinated region, lower than control myelinated region (myelin [1]; [7]) [%]	average SUV in demyelinated region, lower than remyelinated region (myelin [1]; [7]) [%]	localization in brain (myelin [1]; white matter versus gray matter)	labeling of myelin sheaths in wild-type mouse brain sections (myelin sheaths; 100 μM, fresh frozen sections)	labeling of myelin sheaths in wild-type and shiverer mouse brain sections (myelin sheaths; 1 mM, fresh frozen sections)	antibody staining of MBP after CNP staining of the same section (MBP)	fluorescent intensities in the brain, shiverer versus wild-type mice (myelin [2])	time of peak fluorescent signal in shiverer mice (myelin [2]) [min]	average radiance in wild-type mice relative to shiverer mice (myelin [2])	brain entry (myelin [2]; summary statement at the head of Example 1)	detection of demyelination lesion in brain sections [3]	maximal emission wavelength [4] [nm]	maximal excitation wavelength [4] [nm]	labeling of myelin sheaths in wild-type mouse brain sections (myelin sheaths; 1 μM, free floating sections)	brain permeability [5]	fluorescent radiance / average fluorescent intensity in Plp-Akt-DD mice compared with wild-type mice (myelin [6]; 2-120 min post injection)	clearance in wild-type control mice (myelin [6]; brain fluorescence)	clearance in hypermyelinated (Plp-Akt-DD) mice (myelin [6]; brain fluorescence, compared to WT)
COc1cccc(C[n+]2c(/C=C/C=C/C=C/C=C3/Sc4ccccc4N3Cc3cccc(O[11CH3])c3)sc3ccccc32)c1 [[^11C] CNP]	significantly higher	40	20	preferentially localizes in the myelin-rich white matter	–	–	–	–	–	–	–	–	–	–	–	–	–	–	–
COc1cccc(CN2\C(=C/C=C/C=C/C=C/c3sc4ccccc4[n+]3Cc3cccc(OC)c3)Sc3ccccc32)c1.[Br-] [CNP]	–	–	–	–	bind specifically to myelin sheaths	selectively labeled intact myelin sheaths	significantly blocked	significantly different	5	four fold greater	readily enters the brain	can detect the LPC induced demyelination lesion	–	–	–	–	–	–	–
CCN1\C(=C/C=C/C=C/C=C/c2sc3ccccc3[n+]2CC)Sc2ccccc21.[I-] [CNIR, 3,3′Diethylthiatricarbocyanine iodide]	–	–	–	–	–	–	–	significant different	2	eightfold greater	–	–	797	782	selectively labeled intact myelin sheaths	can readily penetrate the intact blood-brain barrier	much stronger; also recorded: higher	fast clearance	relatively slower clearance
